Measurements from PubChem BioAssay (NCI).
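Method: 48-hour compound exposure of cells in 96-well plates, five concentrations, linear interpolation of endpoints. Definition used: TGI = concentration required for complete inhibition of growth.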

Experiments:
Test in all cases: NCI anticancer screen, dose series, 48 h
786-0 renal = test system: 786-0 renal
A498 renal = test system: A498 renal
A549 NSCLC = test system: A549 NSCLC
ACHN renal = test system: ACHN renal
CAKI-1 renal = test system: CAKI-1 renal
CCRF-CEM leukemia = test system: CCRF-CEM leukemia
DU-145 prostate = test system: DU-145 prostate
EKVX NSCLC = test system: EKVX NSCLC
HCC-2998 colon = test system: HCC-2998 colon
HCT-116 colon = test system: HCT-116 colon
HCT-15 colon = test system: HCT-15 colon
HL-60(TB) leukemia = test system: HL-60(TB) leukemia
HOP-62 NSCLC = test system: HOP-62 NSCLC
HOP-92 NSCLC = test system: HOP-92 NSCLC
HS 578T breast = test system: HS 578T breast
HT29 colon = test system: HT29 colon
IGROV1 ovarian = test system: IGROV1 ovarian
K-562 leukemia = test system: K-562 leukemia
KM12 colon = test system: KM12 colon
LOX IMVI melanoma = test system: LOX IMVI melanoma
M14 melanoma = test system: M14 melanoma
MALME-3M melanoma = test system: MALME-3M melanoma
MCF7 breast = test system: MCF7 breast
MDA-MB-231 breast = test system: MDA-MB-231 breast
MDA-MB-435 = test system: MDA-MB-435
MDA-N = test system: MDA-N
MOLT-4 leukemia = test system: MOLT-4 leukemia
NCI-H226 lung = test system: NCI-H226 lung
NCI-H23 lung = test system: NCI-H23 lung
NCI-H460 lung = test system: NCI-H460 lung
NCI-H522 lung = test system: NCI-H522 lung
NCI/ADR-RES ovarian = test system: NCI/ADR-RES ovarian
OVCAR-3 ovarian = test system: OVCAR-3 ovarian
OVCAR-4 ovarian = test system: OVCAR-4 ovarian
OVCAR-5 ovarian = test system: OVCAR-5 ovarian
OVCAR-8 ovarian = test system: OVCAR-8 ovarian
PC-3 prostate = test system: PC-3 prostate
RPMI-8226 leukemia = test system: RPMI-8226 leukemia
RXF 393 renal = test system: RXF 393 renal
SF-268 CNS = test system: SF-268 CNS
SF-295 CNS = test system: SF-295 CNS
SF-539 CNS = test system: SF-539 CNS
SK-MEL-2 melanoma = test system: SK-MEL-2 melanoma
SK-MEL-28 melanoma = test system: SK-MEL-28 melanoma
SK-MEL-5 melanoma = test system: SK-MEL-5 melanoma
SK-OV-3 ovarian = test system: SK-OV-3 ovarian
SN12C renal = test system: SN12C renal
SNB-19 CNS = test system: SNB-19 CNS
SNB-75 CNS = test system: SNB-75 CNS
SR leukemia = test system: SR leukemia
SW-620 colon = test system: SW-620 colon
T-47D breast = test system: T-47D breast
TK-10 renal = test system: TK-10 renal
U251 CNS = test system: U251 CNS
UACC-257 melanoma = test system: UACC-257 melanoma
UACC-62 melanoma = test system: UACC-62 melanoma
UO-31 renal = test system: UO-31 renal

Cc1ccc2c(=O)cc(-c3ccc(Cl)cc3)[nH]c2n1 was tested, and the TGI (786-0 renal) was over 100 µM, the TGI (A498 renal) was over 100 µM and the TGI (A549 NSCLC) was over 100 µM. For the same molecule, the TGI (ACHN renal) was over 100 µM, the TGI (CAKI-1 renal) was over 65.9 µM and the TGI (CCRF-CEM leukemia) was over 100 µM. The TGI (DU-145 prostate) was over 55.4 µM, the TGI (EKVX NSCLC) was over 100 µM and the TGI (HCC-2998 colon) was over 63 µM. For the same molecule, the TGI (HCT-116 colon) was over 32.1 µM, the TGI (HCT-15 colon) was over 41.3 µM and the TGI (HL-60(TB) leukemia) was 8.8 µM. For the same molecule, the TGI (HOP-62 NSCLC) was over 100 µM, the TGI (HOP-92 NSCLC) was over 100 µM and the TGI (HS 578T breast) was over 100 µM. It also gave a TGI (HT29 colon) of over 29.4 µM, a TGI (IGROV1 ovarian) of over 100 µM and a TGI (K-562 leukemia) of 29.1 µM. For the same molecule, the TGI (KM12 colon) was over 100 µM, the TGI (LOX IMVI melanoma) was over 100 µM and the TGI (M14 melanoma) was over 100 µM. The TGI (MALME-3M melanoma) was over 31.3 µM, the TGI (MCF7 breast) was over 100 µM and the TGI (MDA-MB-231 breast) was 19.7 µM. It also gave a TGI (MDA-MB-435) of 5.5 µM, a TGI (MDA-N) of 5.56 µM and a TGI (MOLT-4 leukemia) of over 43.3 µM. For the same molecule, the TGI (NCI-H226 lung) was 82 µM, the TGI (NCI-H23 lung) was over 100 µM and the TGI (NCI-H460 lung) was over 100 µM. The TGI (NCI-H522 lung) was over 100 µM, the TGI (NCI/ADR-RES ovarian) was over 28.3 µM and the TGI (OVCAR-3 ovarian) was over 30.2 µM. It also gave a TGI (OVCAR-4 ovarian) of over 100 µM, a TGI (OVCAR-5 ovarian) of over 100 µM and a TGI (OVCAR-8 ovarian) of over 100 µM. It also gave a TGI (PC-3 prostate) of over 20.8 µM, a TGI (RPMI-8226 leukemia) of over 49.1 µM and a TGI (RXF 393 renal) of over 100 µM. The TGI (SF-268 CNS) was over 100 µM, the TGI (SF-295 CNS) was 53.8 µM and the TGI (SF-539 CNS) was 36.8 µM. The TGI (SK-MEL-2 melanoma) was over 100 µM, the TGI (SK-MEL-28 melanoma) was over 100 µM and the TGI (SK-MEL-5 melanoma) was 14.6 µM. It also gave a TGI (SK-OV-3 ovarian) of over 100 µM, a TGI (SN12C renal) of over 94.8 µM and a TGI (SNB-19 CNS) of over 100 µM. For the same molecule, the TGI (SNB-75 CNS) was over 27.9 µM, the TGI (SR leukemia) was over 100 µM and the TGI (SW-620 colon) was over 100 µM. The TGI (T-47D breast) was 26.3 µM, the TGI (TK-10 renal) was over 100 µM and the TGI (U251 CNS) was over 59.9 µM. For the same molecule, the TGI (UACC-257 melanoma) was over 67.7 µM, the TGI (UACC-62 melanoma) was over 100 µM and the TGI (UO-31 renal) was over 66.8 µM.
